Reference: patent US9090600B2, “Fungicidal 4-substituted-3-{phenyl[(heterocyclylmethoxy)imino]methyl}-1,2,4-oxadizol-5(4H)-one derivatives” (BAYER INTELLECTUAL PROPERTY GMBH, priority 2011, dated 2015)
Like-named read-outs stand apart in the source and are kept apart here. Marks after values point to notes of the source that are not given here.

Assays:
Pythium aphanidermatum = assay: Pythium test (cucumber)/seed treatment; format: in vivo; settings: 10 g/dt seed of active ingredient, emerged seedlings after 7 days
Experimental: (§1) The test is performed under greenhouse conditions.
Cucumber seeds, treated with the active compound or compound combinations, solved in N-methyl-2-pyrrolidon and diluted with water to the desired dosages, were sown in 6*6 cm pots containing 4 cm of a 1:1 mix of steamed field soil and sand.
Perlite was incubated with mycelium fragments of Pythium aphanidermatum. 5 ml of infected perlite was scattered between the treated […] seeds. Seeds were then covered by the 1:1 mix of steamed field soil and sand. Pots were incubated in the greenhouse 7 days at 24° C. and 80% relative humidity. Assessment consisted of counting of emerged seedlings. 0% means an efficacy which corresponds to that of the control, while an efficacy of 100% means that all seedlings have emerged.

Plasmopara viticola = assay: Plasmopara test (grapevines)/preventive; format: in vivo; settings: preventive spray, 10 ppm of active ingredient, evaluated 6 days after inoculation
Method in brief: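 Young grapevines sprayed preventively with compound formulated in acetone/dimethylacetamide with emulsifier, diluted in water, then inoculated with P. viticola spores after drying. Held 1 day at ~20 °C/100% RH, 4 days in greenhouse at ~21 °C/~90% RH, then misted for 1 day. Efficacy scored 6 days post-inoculation (0% = untreated control, 100% = no disease).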

Phytophthora infestans [1] = format: in vivo; settings: tomato, preventive spray, 100 ppm of active ingredient, evaluated 7 days after inoculation
Pythium irregulare = assay: Pythium test (corn)/seed treatment; format: in vivo; settings: 10 g/dt seed of active ingredient, emerged seedlings after 7 days at 10° C. then 14 days at 20° C.
Experimental: as §1
Corn seeds, treated with the active compound or compound combinations, solved in N-methyl-2-pyrrolidon and diluted with water to the desired dosages, were sown in 6*6 cm pots containing 4 cm of a 1:1 mix of steamed field soil and sand.
Perlite was incubated with mycelium fragments of Pythium irregulare. 5 ml of infected perlite was scattered between the treated cotton seeds. Seeds were than covered by the 1:1 mix of steamed field soil and sand. Pots were incubated in the greenhouse 7 days at 10° C. and 80% relative humidity and then 14 days at 20° C. and 80% relative humidity.
(§2) Assessment consisted of counting of emerged seedlings. 0% means an efficacy which corresponds to that of the control, while an efficacy of 100% means that all seedlings have emerged.

[2] = pH 2.7
Pythium ultimum = assay: Pythium test (cotton)/seed treatment; format: in vivo; settings: 10 g/dt seed of active ingredient, emerged seedlings after 7 days
Experimental: as §1
Cotton seeds, treated with the active compound or compound combinations, solved in N-methyl-2-pyrrolidon and diluted with water to the desired dosages, were sown in 6*6 cm pots containing 4 cm of a 1:1 mix of steamed field soil and sand.
Perlite was incubated with mycelium fragments of Pythium ultimum. 1 ml of infected perlite was scattered between the treated cotton seeds. Seeds were then covered by light expanded clay aggregate. Pots were incubated in the greenhouse 7 days at 20° C. and 80% relative humidity.
as §2

Phytophthora infestans [3] = format: in vivo; settings: tomato plants, spray, 500 ppm, grading 5 days after contamination
Puccinia recondita = assay: In vivo test on Puccinia recondita (brown rust); settings: wheat plants, spray, 500 ppm, grading 10 days after contamination
Method in brief: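 Wheat (Scipion) at the 1-leaf stage sprayed with compound suspension (acetone/tween/DMSO diluted in water), then inoculated 24 h later with Puccinia recondita spores at 100.000 spores per ml. Plants were held 24 h at 20 °C/100% RH, then 10 days at 20 °C/70% RH; protection graded 10 days post-inoculation versus untreated controls.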

Botrytis cinerea = assay: In vivo test on Botrytis cinerea (grey mould); settings: gherkin plants, spray, 500 ppm, grading 4/5 days after contamination
Experimental: The active ingredients tested are prepared by homogenization in a mixture of acetone/Tween/DMSO, then diluted with water to obtain the desired active material
Gherkin plants (Vert petit de Paris variety), sown on a 50/50 peat soil-pozzolana substrate in starter cups and grown at 18-20° C., are treated at the cotyledon Z11 stage by spraying with the active ingredient prepared as described above.
Plants, used as controls, are treated with an aqueous solution not containing the active material. After 24 hours, the plants are contaminated by spraying them with an aqueous suspension of cryopreserved Botrytis cinerea spores (50.000 spores per ml) on upper surface of the leaves. The spores are suspended in a nutrient solution composed of: • 10 g/L of PDB; • 50 g/L of D-fructose; • 2 g/L of NH4NO3; • 1 g/L of KH2PO4.
The contaminated cucumber plants are settled for 4/5 days in a climatic room at 17° C. (day/night) and at 80% relative humidity.
Grading is carried out 4/5 days after the contamination, in comparison with the control plants.
(§3) Under these conditions, good (at least 70%) or total protection is observed at a dose of 500 ppm with the following compounds: […]

[4] = system: Mycosphaerella graminicola; assay: In vivo test on Mycosphaerella graminicola (wheat leaf spot); settings: wheat plants, spray, 500 ppm, grading 21 to 28 days after contamination
Method in brief: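 Scipion wheat at 1-leaf stage was sprayed with compound suspension (acetone/tween/DMSO diluted in water), then inoculated 24 h later with spores (500.000/ml). Plants were held 72 h at 18° C and 100% RH, then 21 to 28 days at 90% RH. Efficacy was graded as % versus untreated controls.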

Uromyces appendiculatus = assay: In vivo test on Uromyces appendiculatus (brown rust of bean); settings: Saxa variety plants, spray, 500 ppm, grading 10 days after contamination
Experimental: (§4) The active ingredients tested are prepared by homogenization in a mixture of acetone/tween/DMSO, then diluted with water to obtain the desired active material.
[…] (Saxa variety) sown on 50/50 peat soil-pozzolana substrate in starter cups and grown at 24° C., are treated at the 2-leaf stage (9 cm tall) by spraying with the aqueous suspension described above.
Plants, used as controls, are treated with an aqueous solution not containing the active material.
After 24 hours, the plants are contaminated by spraying the leaves with an aqueous suspension of Uromyces appendiculatus spores (150.000 spores per ml). The spores are collected from a 10-day-old contaminated […] and are suspended in water containing 2.5 ml/l of tween 80 10%. The contaminated […] are incubated for 24 hours at 20° C. and at 100% relative humidity, and then for 10 days at 20° C. and at 70% relative humidity. Grading is carried out 10 days after the contamination, in comparison with the control plants.
as §3

Sphaerotheca fuliginea = assay: In vivo test on Sphaerotheca fuliginea (cucurbits powdery mildew); settings: gherkin plants, spray, 500 ppm, grading 12 days after contamination
Experimental: as §4
Gherkin plants (Vert petit de Paris variety) in starter cups, sown on a 50/50 peat soil-pozzolana substrate and grown at 20° C./23° C., are treated at the cotyledon Z10 stage by spraying with the aqueous suspension described above. Plants, used as controls, are treated with an aqueous solution not containing the active material.
After 24 hours, the plants are contaminated by spraying them with an aqueous suspension of Sphaerotheca fuliginea spores (100.000 spores per ml). The spores are collected from a contaminated plants. The contaminated gherkin plants are incubated at about 20° C./25° C. and at 60/70% relative humidity.
Grading (% of efficacy) is carried out 12 days after the contamination, in comparison with the control plants.
as §3

Pyricularia grisea = format: in vivo; settings: rice plants, spray, 500 ppm, grading 6 days after contamination
[5] = Measurement of log P values by HPLC on reversed phase columns (EEC directive 79/831 Annex V.A8); settings: pH 2.7
Alternaria brassicae = assay: In vivo test on Alternaria brassicae (leaf spot of crucifers); settings: radish plants, spray, 500 ppm, grading 6 to 7 days after contamination
Experimental: as §4
Radish plants (Pernot variety), sown on a 50/50 peat soil-pozzolana substrate in starter cups and grown at 18-20° C., are treated at the cotyledon stage by spraying with the active ingredient prepared as described above.
Plants, used as controls, are treated with the mixture of acetone/tween/water not containing the active material.
After 24 hours, the plants are contaminated by spraying them with an aqueous suspension of Alternaria brassicae spores (40,000 spores per cm^3). The spores are collected from a 12 to 13 days-old culture.
The contaminated radish plants are incubated for 6-7 days at about 18° C., under a humid atmosphere.
Grading is carried out 6 to 7 days after the contamination, in comparison with the control plants.
Under these conditions, good protection (at least 70%) is observed at a dose of 500 ppm with the following compounds: […]

Compound	Eff. % (Pythium aphanidermatum) [%]	Eff. % (Plasmopara viticola) [%]	Eff. % (Phytophthora infestans [1]) [%]	Eff. % (Pythium irregulare) [%]	LogP [2]	Eff. % (Pythium ultimum) [%]	Eff. % (Phytophthora infestans [3]) [%]	Eff. % (Puccinia recondita) [%]	Eff. % (Botrytis cinerea) [%]	Eff. % [4] [%]	Eff. % (Uromyces appendiculatus) [%]	Eff. % (Sphaerotheca fuliginea) [%]	Eff. % (Pyricularia grisea) [%]	chromatographic logP [5]	Eff. % (Alternaria brassicae) [%]
CCCCCOC(=O)Nc1cccc(CO/N=C(/c2ccccc2)c2noc(=O)n2C)n1 [Example 2]	98	97	100	100	4.44 [a]	89									
C#CCCOC(=O)Nc1cccc(CO/N=C(/c2ccccc2)c2noc(=O)n2C)n1 [Example 3]	95	100	98	100	3.27 [a]	93									
CCCCC(=O)Nc1cccc(CO/N=C(/c2ccccc2)c2noc(=O)n2C)n1 [Example 15]	98	97	98	100	3.51 [a]	96	99								
Cn1c(/C(=N\OCc2cccc(N)n2)c2cccc(F)c2)noc1=O [Example 83]					1.34 [a]		100	89	73	93	75	85			
CC(C)CCCC(=O)Nc1cccc(CO/N=C(/c2ccccc2)c2noc(=O)n2C)n1 [Example 95]		100			4.25 [a]		100						70		
CCC(CC)C(=O)Nc1cccc(CO/N=C(/c2ccccc2)c2noc(=O)n2C)n1 [Example 124]					3.71 [a]		99					80			
C=CCCCCC(=O)Nc1cccc(CO/N=C(/c2ccccc2)c2noc(=O)n2C)n1 [Example 167]		86			3.89 [a]		98						96		
Cn1c(/C(=N\OCc2cccc(NC(=O)OCc3ccccc3)n2)c2ccccc2)noc1=O [Example 168]	92	100	92	100	3.99 [a]	70	99								
COc1ccccc1OCC(=O)Nc1nc(CO/N=C(/c2ccccc2)c2noc(=O)n2C)cs1 [Example 171]					3.55 [a]		100				82		80		
COc1ccc(OC)c(CC(=O)Nc2cccc(CO/N=C(/c3ccccc3)c3noc(=O)n3C)n2)c1 [Example 190]					3.6 [a]		100	94		100	83	98			
CCN(CC)c1cccc(CO/N=C(/c2ccccc2)c2noc(=O)n2C)n1 [Example 197, 3-[(Z)-({[6-(diethylamino)pyridin-2-yl]methoxy}imino)(phenyl)methyl]-4-methyl-1,2,4-oxadiazol-5(4H)-one]							100	94		96	89	80		2.63	
CCOCC(C)OC(=O)Nc1cccc(CO/N=C(/c2ccccc2)c2noc(=O)n2C)n1 (stereo not drawn) [Example 199]	99	100	97	100	3.53 [a]	96									
CCn1c(/C(=N\OCc2cccc(N)n2)c2ccccc2)noc1=O [Example 209]					1.42 [a]		84	88				75			70
CCCCCC(=O)Nc1cccc(CO/N=C(/c2cccc(OC)c2)c2noc(=O)n2C)n1 [Example 211]					3.92 [a]		91	71	84			72			
C#CCC(C)OC(=O)Nc1cccc(CO/N=C(/c2ccccc2)c2noc(=O)n2C)n1 (stereo not drawn) [Example 226]	99	100	92	90	3.57 [a]	93	100								
C#CCOC(=O)Nc1cccc(CO/N=C(/c2ccccc2)c2noc(=O)n2C)n1 [Example 342]	100	100	92	100	3.13 [a]	100	99								
